In ChEMBL document CHEMBL4382193, “Discovery of Potent Irreversible Pan-Fibroblast Growth Factor Receptor (FGFR) Inhibitors” (J Med Chem, 2018):

What was measured:
NCI-H1581 = experiment: cells; details: Homo sapiens, NCI-H1581, 72 h
Description: Antiproliferative activity against FGFR1 amplified human NCI-H1581 cells after 72 hrs by CCK8 or MTT assay

[1] = target: Fibroblast growth factor receptor 4 (Homo sapiens, UniProt P22455); experiment: Inhibition of recombinant FGFR4 (unknown origin) using poly (Glu,Tyr) 4:1 as substrate after 60 mins by ELISA
[2] = target: Fibroblast growth factor receptor 1 (Homo sapiens, UniProt P11362)
Sequence of Fibroblast growth factor receptor 1 (P11362 whole entry): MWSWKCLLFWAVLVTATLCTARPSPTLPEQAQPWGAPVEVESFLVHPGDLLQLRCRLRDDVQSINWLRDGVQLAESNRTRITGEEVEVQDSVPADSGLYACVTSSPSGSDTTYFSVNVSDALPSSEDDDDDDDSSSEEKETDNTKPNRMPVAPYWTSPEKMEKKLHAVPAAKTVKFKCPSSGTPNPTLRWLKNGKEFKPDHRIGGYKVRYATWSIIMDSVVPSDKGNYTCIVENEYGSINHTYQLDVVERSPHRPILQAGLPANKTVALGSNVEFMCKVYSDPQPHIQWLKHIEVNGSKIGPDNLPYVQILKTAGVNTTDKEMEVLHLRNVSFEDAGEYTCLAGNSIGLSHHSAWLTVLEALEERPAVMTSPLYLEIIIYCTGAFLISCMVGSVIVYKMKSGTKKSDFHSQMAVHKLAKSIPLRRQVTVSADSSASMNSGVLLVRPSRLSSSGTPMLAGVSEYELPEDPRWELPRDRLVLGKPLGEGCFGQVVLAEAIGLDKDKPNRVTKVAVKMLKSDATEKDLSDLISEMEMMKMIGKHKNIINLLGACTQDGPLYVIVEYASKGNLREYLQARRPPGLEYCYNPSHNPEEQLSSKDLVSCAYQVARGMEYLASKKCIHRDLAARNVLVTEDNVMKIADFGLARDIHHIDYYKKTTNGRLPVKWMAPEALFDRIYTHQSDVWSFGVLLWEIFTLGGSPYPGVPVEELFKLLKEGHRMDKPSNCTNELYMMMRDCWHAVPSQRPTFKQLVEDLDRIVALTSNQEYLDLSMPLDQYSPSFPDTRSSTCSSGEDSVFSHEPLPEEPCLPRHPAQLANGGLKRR
Description: Inhibition of recombinant FGFR1 (unknown origin) using poly (Glu,Tyr) 4:1 as substrate after 60 mins by ELISA

OPM-2 = experiment: cells; details: Homo sapiens, OPM-2, 72 h
Description: Antiproliferative activity against FGFR3 amplified human OPM2 cells after 72 hrs by CCK8 or MTT assay

RT-112 = experiment: cells; details: Homo sapiens, RT-112, 72 h
Description: Antiproliferative activity against FGFR3 amplified human RT112 cells after 72 hrs by CCK8 or MTT assay

Huh-7 = experiment: cells; details: Homo sapiens, Huh-7, 72 h
Description: Antiproliferative activity against FGF19/FGFR4 expressing human HuH7 cells after 72 hrs by CCK8 or MTT assay

BaF3 [3] = experiment: cells; details: Mus musculus, BaF3, 72 h
Description: Antiproliferative activity against mouse BAF3 cells expressing TEL-fused FGFR4 kinase after 72 hrs by CCK8 or MTT assay

BaF3 [4] = experiment: cells; details: Mus musculus, BaF3, 72 h; remark: listed apart in the source
Description: Antiproliferative activity against mouse BAF3 cells expressing TEL-fused KDR kinase after 72 hrs by CCK8 or MTT assay

Sequence of Fibroblast growth factor receptor 4 (P22455 whole entry): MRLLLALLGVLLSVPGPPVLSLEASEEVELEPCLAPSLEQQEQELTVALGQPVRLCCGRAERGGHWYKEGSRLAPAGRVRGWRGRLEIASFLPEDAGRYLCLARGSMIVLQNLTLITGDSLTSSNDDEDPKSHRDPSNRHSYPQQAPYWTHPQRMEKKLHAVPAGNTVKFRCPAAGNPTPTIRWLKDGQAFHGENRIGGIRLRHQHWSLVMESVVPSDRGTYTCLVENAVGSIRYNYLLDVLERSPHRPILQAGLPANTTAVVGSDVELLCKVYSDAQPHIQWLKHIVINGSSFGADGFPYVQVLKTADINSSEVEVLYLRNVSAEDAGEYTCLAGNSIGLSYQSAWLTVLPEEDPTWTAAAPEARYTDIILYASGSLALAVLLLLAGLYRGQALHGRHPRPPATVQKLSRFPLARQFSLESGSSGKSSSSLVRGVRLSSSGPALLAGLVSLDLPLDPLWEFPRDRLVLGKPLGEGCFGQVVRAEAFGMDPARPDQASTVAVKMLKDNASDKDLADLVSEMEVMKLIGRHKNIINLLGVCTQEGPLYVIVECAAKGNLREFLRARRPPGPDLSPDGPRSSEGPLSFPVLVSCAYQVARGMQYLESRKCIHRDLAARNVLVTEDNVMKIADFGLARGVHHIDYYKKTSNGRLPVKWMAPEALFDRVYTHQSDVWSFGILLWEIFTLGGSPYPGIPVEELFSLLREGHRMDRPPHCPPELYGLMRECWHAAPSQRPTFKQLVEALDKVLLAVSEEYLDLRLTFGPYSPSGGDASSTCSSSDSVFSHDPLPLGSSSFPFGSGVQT

IC50 (NCI-H1581) [nM]	SMILES	other results
255	C=CC(=O)NCCn1cc(-c2cc3cc(C)cc(OC)c3s2)c2c(N)ncnc21	–
254	C=CC(=O)N1CCC(n2cc(-c3cc4cc(C)cc(OC)c4s3)c3c(N)nc(C)nc32)C1 (stereo unspecified)	–
< 0.3	C=CC(=O)N1CCC(n2cc(-c3cc4cc(C)cc(OC)c4s3)c3c(N)ncnc32)CC1	–
15.9	C=CC(=O)N1CC(n2cc(-c3cc4c(OC)ccc(OC)c4s3)c3c(N)ncnc32)C1	–
49.7	CCC(=O)N1CCC(n2cc(-c3cc4cc(C)cc(OC)c4s3)c3c(N)ncnc32)C1 (stereo unspecified)	–
90.2	C=CC(=O)N1CCC(n2cc(-c3cc(OC)cc(OC)c3)c3c(N)ncnc32)C1 (stereo unspecified)	–
< 0.3	C=CC(=O)N1CCC(n2cc(-c3cc4cc(C)cc(OC)c4s3)c3c(N)ncnc32)C1 (stereo unspecified)	IC50 [1]: 6.2 nM; IC50 [2]: < 0.3 nM
67.9	C=CC(=O)NC1CCC(n2cc(-c3cc4cc(C)cc(OC)c4s3)c3c(N)ncnc32)CC1 (stereo unspecified)	–
> 1000	C#CC(=O)N1CCC(n2cc(-c3cc4cc(C)cc(OC)c4s3)c3c(N)ncnc32)C1 (stereo unspecified)	–
–	COc1cc(CCc2cc(NC(=O)c3ccc(N4C[C@@H](C)N[C@@H](C)C4)cc3)n[nH]2)cc(OC)c1 [FEXAGRATINIB]	IC50 (OPM-2): 83.6 nM; IC50 (RT-112): 36.4 nM; IC50 (Huh-7): 284 nM; IC50 (BaF3 [3]): 339 nM; IC50 (BaF3 [4]): 544 nM
< 0.3	C=CC(=O)N1CC(n2cc(-c3cc4cccc(OC)c4s3)c3c(N)ncnc32)C1	–
207	C=CC(=O)N1CC(n2cc(-c3cc4cc(C)cc(OC)c4s3)c3c(N)nc(Cl)nc32)C1	–
21.7	C=CC(=O)N1CC[C@@H](n2cc(-c3cc4cc(C)cc(OC)c4s3)c3c(N)ncnc32)C1	IC50 [1]: 82.7 nM; IC50 [2]: 0.6 nM
–	CCN1CCN(c2ccc(Nc3cc(N(C)C(=O)Nc4c(Cl)c(OC)cc(OC)c4Cl)ncn3)cc2)CC1 [INFIGRATINIB]	IC50 (RT-112): < 0.5 nM; IC50 (Huh-7): 57.2 nM; IC50 (BaF3 [3]): 133 nM; IC50 (BaF3 [4]): 3340 nM
170	C=CC(=O)N1CC(n2cc(-c3cc4ccccc4s3)c3c(N)ncnc32)C1	–
